We go through 4 compounds from patent publication US20130303500A1, “COMPOUNDS AND METHODS FOR TREATING NEOPLASIA” (Medexis S.A., priority 2010, published 2013).

In general, GI50 refers to the concentration giving 50% growth inhibition. By TGI is commonly meant the concentration giving total growth inhibition. Lower therefore signals more potent growth arrest. In general, IC50 refers to the concentration that inhibits the measured activity by half.

The test system of test [1] is 7 different cell lines (lung, ovarian, prostate, CNS, breast, colon). Briefly: SRB assays across 7 cell lines. The format is cell-based, human. Particulars: for GI50: average over cell lines; for viability and/or cell proliferation of cell lines: cell lines representative of lung, breast, CNS, prostate, ovarian, colon and renal neoplasias. As to the method:
(§1) Sulforhodamine B (SRB) assays were performed according to standard National Cancer Institute Guidelines. Briefly, human tumor cells from different cancer panels were seeded into 96 well plates in […] (plating densities ranging from 5-40,000 cells/well depending on the doubling time of individual cell lines) in serum-containing media for twenty-four hours prior to the addition of the compounds to be assayed. After 24 hours, one plate of each cell line was fixed in situ with trichloroacetic acid (TCA). The fixed slides were used to determine the cell population for each cell line at the time of drug addition (Tz). Each compound to be tested was solubilized in dimethyl sulfoxide (DMSO) and the desired concentration was then added to the medium and diluted serially 1:10 to provide a total of five or ten drug concentrations plus control (in a final volume of 200 μL). The starting dose before any dilution was 100 uM for all compounds.
(§2) Following drug addition, each culture was incubated for forty-eight hours. The assay was terminated with the addition of cold TCA. The supernatant was discarded, and the plates were washed with tap water and air dried. SRB solution was then added to each well. After staining, the bound stain was solubilized and the absorbance was read on an automated plate reader at a wavelength of 515 nm.
(§3) Using the absorbance measurements [time zero, (Tz), control growth, (C), and test growth in the presence of drug at the ten concentration levels (Ti)], the percentage growth was calculated at each of the drug concentrations levels. Percentage growth inhibition was calculated as:
(§4) [(Ti−Tz)/(C−Tz)]×100 for concentrations for which Ti>/=Tz
(§5) [(Ti−Tz)/Tz]×100 for concentrations for which Ti<Tz.
(§6) Three dose response parameters were calculated for each experimental agent. Growth inhibition of 50% (GI50) was calculated from [(Ti−Tz)/(C−Tz)]×100=50, which was the drug concentration resulting in a 50% reduction in the net protein increase (as measured by SRB staining) in control cells during the drug. The drug concentration resulting in total growth inhibition (TGI) was calculated from Ti=Tz. The LC50 (concentration of drug resulting in a 50% reduction in the measured protein at the end of the drug treatment as compared to that at the beginning) indicating a net loss of cells following treatment was calculated from [(Ti−Tz)/Tz]×100=−50.
(§7) Values were calculated for each of these three parameters when the level of activity was reached; however, if the effect was not reached or was exceeded, the value for that parameter was expressed as greater or less than the maximum or minimum concentration tested.
SRB provides a colorimetric measure of a compound's anti-cancer activity. SRB assays were performed with compounds of the invention in 7 different cell lines, which represent six different tumor panels (lung, ovarian, prostate, CNS, breast, colon).
For orientation: The SRB assay estimates cell density from bound dye.

For a further test, the system named is H460 (Lung) cells. As to the kind of experiment: Sulforhodamine B (SRB) assay, H460. The format is cell-based, human. The conditions noted are these: for TGI / GI50: H460 Lung, SRB, 48 h; for CC50 / GI50: Homo sapiens; for CC50: NCI-H460, 48 h, read-out: LC50; for GI50: NCI-H460. As to the method:
as §1, §2, §3, §4, §5, §6, §7

Another test deals with MCF7 (Breast) cells. Briefly: Sulforhodamine B (SRB) assay, MCF7. The format is cell-based, human. The conditions noted are these: for CC50 / GI50: Homo sapiens; for CC50: MCF7, 48 h, read-out: LC50; for GI50 / TGI: MCF7 Breast, SRB, 48 h. As to the method:
as §1, §2, §3, §4, §5, §6, §7

Test [2] concerns NCI-ADR-RES (Ovarian) cells. Briefly: Sulforhodamine B (SRB) assay, NCI-ADR-RES (multidrug resistant). It counts as cell-based, human. The conditions noted are these: 48 h. How it is done: as §1, §2, §3, §4, §5, §6, §7
For the next test, the system named is HCT116 (Colon) cells. Briefly: Sulforhodamine B (SRB) assay, HCT116. It counts as cell-based, human. As to the method: as §1, §2, §3, §4, §5, §6, §7
For test [3], the target named is Na+/K+-ATPase (Adenosine 5′-Triphosphatase isolated from porcine cerebral cortex). As to the kind of experiment: Na+/K+-ATPase inhibitory activity, colorimetric Adenosine 5′-Triphosphatase Enzymatic Assay (Sigma). It counts as biochemical. Particulars: enzyme from porcine cerebral cortex, 0.5 units/ml. How it is done:
The compound inhibitory effect on ATPase activity was assessed in vitro using the colorimetric Adenosine 5′-Triphosphatase Enzymatic Assay of Sigma (St. Louis, Mo.) according to the manufacturer's instructions. This assay utilizes Adenosine 5′-Triphosphatase isolated from porcine cerebral cortex. Each reaction was performed in a final volume of […] using 0.5 units/ml enzyme in the presence of the different inhibitors. […] IC50 values were determined using the Origin® program software (OriginLab, Northampton, Mass.).

A further test has as its system DU145 (Prostate) cells. As to the kind of experiment: MTT cell proliferation/viability assay, DU145. Particulars: Homo sapiens, DU-145, 72 h. The format is cell-based. How it is done: (§8) Cell proliferation/viability was assessed by the MTT [3-(4,5-dimethylthiazol-2-yl)-2,5-diphenyltetrazolium bromide] assay, which is commercially available (Sigma, St. Louis, Mo.). Cells were cultured in 96-well plates for twenty-four hours (7-10.000 cells/well) and incubated with various concentrations of the different compounds—as indicated in the Figures—in serum-containing medium (or left untreated) for seventy-two hours. At the end of incubation, the medium was aspirated and MTT dissolved in RPMI 1640 w/o phenol red was added to each well to a final concentration of 0.25 mg/ml. After four hours incubation in the dark (37° C., 5% CO2) the supernatant was discarded. The converted dye (blue formazan crystals) was solubilized by adding 200 μl dimethylsulfoxide to each well. Absorbance was measured at 550 nm with reference at 655 nm using a spectrophotometer with the respective filters. All assays were performed in triplicate.
(§9) The effect of the different compounds on the proliferation and viability of two cancer cell lines (DU145/prostate and CAKI/renal) was tested through quantitative (4,5-dimethylthiazol-2-yl)-2,5-diphenyltetrazolium bromide (MTT) assays.

In the next test the test system is A549 (Lung) cells. Briefly: Sulforhodamine B (SRB) assay, A549. It counts as cell-based. Particulars: Homo sapiens; for CC50: A549, 48 h, read-out: LC50; for GI50 / IC (TGI): A549 Lung, SRB, 48 h. How it is done: as §1, §2, §3, §4, §5, §6, §7
In the next test the test system is PC3 (Prostate) cells. As to the kind of experiment: Sulforhodamine B (SRB) assay, PC3. The format is cell-based. The conditions noted are these: Homo sapiens, Prostate cell, 48 h; for CC50: read-out: LC50; for GI50 / IC (TGI): PC3 Prostate, SRB. How it is done:
as §1, §2, §3, §4, §5, §6, §7

A further test has as its system SF268 (CNS) cells. Briefly: Sulforhodamine B (SRB) assay, SF268. The format is cell-based. Particulars: Homo sapiens; for CC50: SF-268, 48 h, read-out: LC50; for GI50 / IC (TGI): SF-268, SF268 CNS, SRB, 48 h. How it is done: as §1, §2, §3, §4, §5, §6, §7
The test system of a further test is CAKI (Renal) cells. Briefly: MTT cell proliferation/viability assay, CAKI. The conditions noted are these: 72 h. It counts as cell-based. How it is done: as §8, §9

The structures appear in SMILES notation.

`CON=C1CC2C(CC[C@]3(C)C(=O)C(F)CC23)[C@@]2(C)CCC(=NOC3CCNC3)CC12` (stereo in doubt) [Compound 8, (5S,10R,13S,16R)-16a-fluoro-6-(methoxyimino)-10,13-dimethyl-3-((R)-pyrrolidin-3-yloxyimino)-tetradecahydro-2H-cyclopenta[a]phenanthren-17(14H)-one]: the CC50 is less than 1 µM in [1] (Homo sapiens, read-out: LC50 values); 0.074 µM with H460 (Lung) cells; 6.96 µM with MCF7 (Breast) cells; 0.508 µM in test [2] (Homo sapiens, NCI/ADR-RES, read-out: LC50); 1.04 µM with HCT116 (Colon) cells (Homo sapiens, HCT-116, 48 h, read-out: LC50); 0.075 µM with A549 (Lung) cells. Also, the figures for the CC50 with PC3 (Prostate) cells and in the test on SF268 (CNS) cells were 0.919 µM and 0.085 µM, respectively. In addition, the GI50 in [1] (Homo sapiens, SRB) was less than 1 µM; in the test with H460 (Lung) cells it was 0.004 µM; with MCF7 (Breast) cells, 0.024 µM; in test [2] (Homo sapiens, NCI-ADR-RES Ovarian, SRB) it was 0.014 µM; in the test on HCT116 (Colon) cells (Homo sapiens, HCT-116, HCT116 Colon, SRB, 48 h), 0.035 µM; with A549 (Lung) cells it was 0.006 µM. Also, the GI50 in the test with PC3 (Prostate) cells amounted to 0.009 µM; in the test with SF268 (CNS) cells it was 0.004 µM. For the same compound, the “viability and/or cell proliferation of cell lines” value in test [1] is listed as “reduced the viability and/or cell proliferation”. In addition, the “anti-cancer activity in SRB assays” value in test [1] (multiple cell lines) is “best activity”. Further, the TGI came out at 0.027 µM in the test on H460 (Lung) cells; 0.327 µM in the test with MCF7 (Breast) cells; 0.071 µM in test [2] (NCI-ADR-RES Ovarian, SRB); 0.236 µM with HCT116 (Colon) cells (HCT116 Colon, SRB, 48 h). For the same compound, the values for the IC50 (in test [3]; in the test with DU145 (Prostate) cells) were 0.311 µM and 0.223 µM, respectively. In addition, the IC (TGI) was determined as 0.029 µM in the test on A549 (Lung) cells, 0.199 µM in the test on PC3 (Prostate) cells and 0.038 µM with SF268 (CNS) cells.
In the case of `C[C@]12CCC(=NOC3CCNC3)CC1C(=O)CC1C2CC[C@]2(C)C(=O)C(F)CC12` (stereo partly drawn) [Compound 4, (10R,13S,16R)-16a-fluoro-10,13-dimethyl-3-((S)-pyrrolidin-3-yloxyimino)-tetradecahydro-14H-cyclopenta[a]phenanthrene-6,17-dione], the GI50 was less than 1 µM in [1] (Homo sapiens, SRB); 0.43 µM in the test with A549 (Lung) cells; 0.731 µM in the test on PC3 (Prostate) cells; 0.277 µM in the test with SF268 (CNS) cells. Also, the “viability and/or cell proliferation of cell lines” value in test [1] was “reduced the viability and/or cell proliferation”. Also, the IC50 with CAKI (Renal) cells was 5 µM; in test [3], 0.194 µM; in the test on DU145 (Prostate) cells it was 2.7 µM. Further, the CC50 amounted to 1.01 µM in the test on A549 (Lung) cells, 8.04 µM in the test on PC3 (Prostate) cells and 6.98 µM in the test with SF268 (CNS) cells. Besides, the values for the IC (TGI) with A549 (Lung) cells, in the test on PC3 (Prostate) cells and with SF268 (CNS) cells were 0.723 µM, 3.24 µM and 0.782 µM, respectively.
Regarding `C[C@]12CCC3C(CC(=O)[C@H]4CC(=NO[C@H]5CCNC5)CC[C@]34CO)C1CCC2=O` (stereo partly drawn) [Compound 28, (5S,10S,13S)-10-(hydroxymethyl)-13-methyl-3-((S)-pyrrolidin-3-yloxyimino)-tetradecahydro-14H-cyclopenta[a]phenanthrene-6,17-dione], in [1], the “viability and/or cell proliferation of cell lines” value was “reduced the viability and/or cell proliferation”. Besides, the TGI with H460 (Lung) cells and with MCF7 (Breast) cells was more than 100 µM each time. Besides, the CC50 in the test on H460 (Lung) cells is more than 100 µM; in the test with MCF7 (Breast) cells it was more than 100 µM; in the test with A549 (Lung) cells, more than 100 µM; in the test with PC3 (Prostate) cells, 157 µM; with SF268 (CNS) cells it was more than 100 µM. The GI50 with H460 (Lung) cells was found to be 57.6 µM; with MCF7 (Breast) cells it was 76.5 µM; in the test on A549 (Lung) cells it was 62.6 µM; in the test with PC3 (Prostate) cells, 53.5 µM; in the test on SF268 (CNS) cells it was 63.8 µM. For the same compound, the IC50 in test [3] came out at 12.9 µM; in the test with DU145 (Prostate) cells, 87 µM. In addition, the IC (TGI) in the test with A549 (Lung) cells and with SF268 (CNS) cells was more than 100 µM throughout.
Consider `CC(=O)OC[C@]12CCC(=NO[C@@H]3CCNC3)C[C@@H]1CCC1C2CC[C@]2(C)C(=O)CCC12` (stereo partly drawn) [Compound 48, ((5S,10R,13S)-13-methyl-17-oxo-3-((R)-pyrrolidin-3-yloxyimino)-hexadecahydro-1H-cyclopenta[a]phenanthren-10-yl)methyl acetate], for which, in test [1] (SRB, most cell lines), the “GI50 action in most cell lines” value was “single-digit micromolar”. Further, in [1], the “viability and/or cell proliferation of cell lines” value is recorded as “reduced the viability and/or cell proliferation”. For the same compound, the figures for the IC50 (with CAKI (Renal) cells; in test [3]; with DU145 (Prostate) cells) were 41.3 µM, 2.88 µM and 11.6 µM, respectively. Besides, the CC50 with A549 (Lung) cells was 102 µM; in the test on PC3 (Prostate) cells, more than 100 µM; in the test with SF268 (CNS) cells, 101 µM. For the same compound, the values for the GI50 with A549 (Lung) cells, in the test on PC3 (Prostate) cells and in the test with SF268 (CNS) cells were 6.31 µM, 8.77 µM and 11.5 µM, respectively. Also, the IC (TGI) with A549 (Lung) cells was 38300 µM; in the test with PC3 (Prostate) cells it was more than 100 µM; in the test on SF268 (CNS) cells, 56400 µM.
